Among the data in patent US11084823B2, “Substituted pyrrolo[2,1-f][1,2,4]triazines as kinase inhibitors” (Daewoong Pharmaceutical Co., Ltd., priority 2017, dated 2021) are IC50 values, retold here.

The target in experiment [1] is Recombinant purified human JAK3 (Homo sapiens (Human), UniProt P52333). Kind of experiment: JAK3 kinase inhibitory activity, ADP-Glo kinase assay kit (Promega V9441). It counts as biochemical. Conditions: ATP 5 uM, 4 ng JAK3 per reaction, 1 hour at 30° C., chemiluminescence. As for the experimental part:
(§1) JAK3 and BTK kinase inhibitory activities were measured for the compounds prepared in the above Examples through in vitro analysis on the ADP Glow (Glo) platform.
(§2) Specifically, the inhibitory activities of JAK3 and BTK kinase were measured using a JAK3 kinase assay kit (Promega, V9441) and a BTK kinase assay kit (Promega, V9071) which were purchased from Promega. Recombinant purified human JAK3 and BTK were diluted with 1× kinase reaction buffer (JAK3: 40 mM Tris-Cl, pH 7.5, 20 mM MgCl2, 0.1 mg/mL BSA and 50 uM DTT/BTK: 40 mM Tris-Cl, pH 7.5, 20 mM MgCl2, 0.1 mg/mL BSA, 2 mM MnCl2 and 50 uM DTT) and added to a 96 well plate (JAK3: final concentration of 4 ng per reaction/BTK: final concentration of 8 ng per reaction). […] After incubation (30° C.) for 1 hour, equivalent volume (25 uL per reaction) of ADP Glo was added and incubated (30° C.) for 40 minutes at room temperature. Then, a kinase detection reagent (50 uL per reaction) was added and incubated (30° C.) for 30 minutes at room temperature. The kinase activity was measured by chemiluminescence according to the instructions of ADP Glo kinase assay kit, and the inhibitory activity of the compounds according to the present invention was calculated.
In general terms: ADP-Glo first removes unused ATP, then detects ADP through luciferase.

In experiment [2] the target is Recombinant purified human BTK (Homo sapiens (Human), UniProt Q06187). Kind of experiment: BTK kinase inhibitory activity, ADP-Glo kinase assay kit (Promega V9071). The format is biochemical. Conditions: ATP 10 uM, 8 ng BTK per reaction, 1 hour at 30° C., chemiluminescence. The protocol: as §1, §2
Sequence of Recombinant purified human BTK (Q06187 whole entry): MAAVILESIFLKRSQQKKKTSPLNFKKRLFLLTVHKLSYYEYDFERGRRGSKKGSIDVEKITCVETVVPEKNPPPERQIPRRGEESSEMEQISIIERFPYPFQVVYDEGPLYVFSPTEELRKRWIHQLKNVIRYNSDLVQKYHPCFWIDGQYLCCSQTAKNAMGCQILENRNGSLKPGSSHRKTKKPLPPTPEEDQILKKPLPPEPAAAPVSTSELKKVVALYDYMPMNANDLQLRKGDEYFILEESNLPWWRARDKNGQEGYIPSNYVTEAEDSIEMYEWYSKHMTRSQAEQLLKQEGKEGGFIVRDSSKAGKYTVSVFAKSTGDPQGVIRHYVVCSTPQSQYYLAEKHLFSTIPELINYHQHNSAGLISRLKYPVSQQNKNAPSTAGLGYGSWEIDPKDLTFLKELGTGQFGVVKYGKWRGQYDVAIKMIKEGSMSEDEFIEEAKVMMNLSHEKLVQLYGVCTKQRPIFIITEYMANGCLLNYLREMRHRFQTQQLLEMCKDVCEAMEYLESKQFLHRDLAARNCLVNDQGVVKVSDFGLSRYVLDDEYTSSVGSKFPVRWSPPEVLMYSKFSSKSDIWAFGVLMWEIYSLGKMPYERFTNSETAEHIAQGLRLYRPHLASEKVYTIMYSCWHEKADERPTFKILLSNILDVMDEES

Sequence of Recombinant purified human JAK3 (P52333 whole entry): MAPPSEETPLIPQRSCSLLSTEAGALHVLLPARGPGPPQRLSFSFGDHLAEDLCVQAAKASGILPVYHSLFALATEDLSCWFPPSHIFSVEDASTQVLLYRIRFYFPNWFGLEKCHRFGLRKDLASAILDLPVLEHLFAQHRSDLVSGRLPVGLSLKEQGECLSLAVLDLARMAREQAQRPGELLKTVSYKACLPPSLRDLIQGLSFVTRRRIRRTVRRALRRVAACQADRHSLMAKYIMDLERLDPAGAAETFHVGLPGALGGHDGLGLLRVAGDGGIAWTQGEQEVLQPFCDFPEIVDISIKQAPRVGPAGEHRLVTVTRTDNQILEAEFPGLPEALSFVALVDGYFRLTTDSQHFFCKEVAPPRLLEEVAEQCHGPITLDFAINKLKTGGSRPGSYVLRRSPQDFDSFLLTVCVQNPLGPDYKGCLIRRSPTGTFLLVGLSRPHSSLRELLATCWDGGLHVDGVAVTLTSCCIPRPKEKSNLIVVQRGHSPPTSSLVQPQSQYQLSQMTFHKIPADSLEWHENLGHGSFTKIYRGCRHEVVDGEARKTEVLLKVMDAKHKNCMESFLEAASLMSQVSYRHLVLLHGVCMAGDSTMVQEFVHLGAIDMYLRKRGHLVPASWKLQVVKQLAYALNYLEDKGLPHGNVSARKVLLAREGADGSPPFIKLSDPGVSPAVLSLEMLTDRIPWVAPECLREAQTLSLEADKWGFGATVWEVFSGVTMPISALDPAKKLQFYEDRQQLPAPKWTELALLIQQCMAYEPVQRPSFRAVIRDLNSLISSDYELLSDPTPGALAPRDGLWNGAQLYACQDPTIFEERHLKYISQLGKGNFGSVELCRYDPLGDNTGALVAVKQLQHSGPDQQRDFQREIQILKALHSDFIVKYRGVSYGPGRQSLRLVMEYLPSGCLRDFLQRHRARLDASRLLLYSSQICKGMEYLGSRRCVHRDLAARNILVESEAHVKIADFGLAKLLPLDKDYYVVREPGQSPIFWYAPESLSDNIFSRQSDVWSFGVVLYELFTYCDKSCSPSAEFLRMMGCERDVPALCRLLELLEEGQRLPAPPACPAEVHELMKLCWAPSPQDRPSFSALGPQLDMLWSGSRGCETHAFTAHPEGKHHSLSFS

As a reminder, the IC50 is the midpoint of a concentration-inhibition curve. As to `C=CC(=O)Nc1ccc(F)c(Oc2nc(Nc3cnn(C4CC4)c3)nn3cccc23)c1` [Example 1, N-(3-((2-((1-cyclopropyl-1H-pyrazol-4-yl)amino)pyrrolo[2,1-f][1,2,4]triazin-4-yl)oxy)-4-fluorophenyl)acrylamide], the IC50 in experiment [1] was found to be 1.1 nM; in experiment [2], 13.6 nM.
In the same order, the values of `C=CC(=O)Nc1cccc(Oc2nc(Nc3ccc(N4CCN(C)CC4)cc3)nn3cccc23)c1` [Example 2, N-(3-((2-((4-(4-methylpiperazin-1-yl)phenyl)amino)pyrrolo[2,1-f][1,2,4]triazin-4-yl)oxy)phenyl)acrylamide] are 2.8 nM and 22.7 nM.
For `C=CC(=O)Nc1cccc(Oc2nc(Nc3cnn(C)c3)nn3cccc23)c1` [Example 3, N-(3-((2-((1-methyl-1H-pyrazol-4-yl)amino)pyrrolo[2,1-f][1,2,4]triazin-4-yl)oxy)phenyl)acrylamide], in that order: 0.6 nM and 12.7 nM.
For `C=CC(=O)Nc1cccc(Oc2nc(Nc3cnn(CC(F)F)c3)nn3cccc23)c1` [Example 4, N-(3-((2-((1-(2,2-difluoroethyl)-1H-pyrazol-4-yl)amino)pyrrolo[2,1-f][1,2,4]triazin-4-yl)oxy)phenyl)acrylamide], in that order: 0.7 nM and 13.4 nM.
As to `C=CC(=O)Nc1cccc(Oc2nc(Nc3cc(C)ns3)nn3cccc23)c1` [Example 5, N-(3-((2-((3-methylisothiazol-5-yl)amino)pyrrolo[2,1-f][1,2,4]triazin-4-yl)oxy)phenyl)acrylamide], the IC50 in experiment [1] was 0.6 nM; in experiment [2] it was 8.7 nM.
For `C=CC(=O)Nc1cccc(Oc2nc(Nc3cnn(CC)c3)nn3cccc23)c1` [Example 6, N-(3-((2-((1-ethyl-1H-pyrazol-4-yl)amino)pyrrolo[2,1-f][1,2,4]triazin-4-yl)oxy)phenyl)acrylamide], in that order: 0.5 nM and 10 nM.
In the same order, the values of `C=CC(=O)Nc1ccc(F)c(Oc2nc(Nc3cc(C)ns3)nn3cccc23)c1` [Example 7, N-(4-fluoro-3-((2-((3-methylisothiazol-5-yl)amino)pyrrolo[2,1-f][1,2,4]triazin-4-yl)oxy)phenyl)acrylamide] are 0.5 nM and 10.7 nM.
With `C=CC(=O)Nc1ccc(F)c(Oc2nc(Nc3cnn(CC)c3)nn3cccc23)c1` [Example 8, N-(3-((2-((1-ethyl-1H-pyrazol-4-yl)amino)pyrrolo[2,1-f][1,2,4]triazin-4-yl)oxy)-4-fluorophenyl)acrylamide], the IC50 in experiment [1] was 0.6 nM; in experiment [2], 7.7 nM.
As for `C=CC(=O)Nc1ccc(F)c(Oc2nc(Nc3ccn(C)c3)nn3cccc23)c1` [Example 9, N-(4-fluoro-3-((2-((1-methyl-1H-pyrrol-3-yl)amino)pyrrolo[2,1-f][1,2,4]triazin-4-yl)oxy)phenyl)acrylamide], the IC50 in experiment [1] came to 16.8 nM; in experiment [2] it was 243 nM.
For `C=CC(=O)Nc1ccc(F)c(Oc2nc(Nc3cnn(CC(C)C)c3)nn3cccc23)c1` [Example 10, N-(4-fluoro-3-((2-((1-isobutyl-1H-pyrazol-4-yl)amino)pyrrolo[2,1-f][1,2,4]triazin-4-yl)oxy)phenyl)acrylamide], in that order: 9.6 nM and 113 nM.
In the same order, the values of `C=CC(=O)Nc1cccc(Oc2nc(Nc3cnn(C4CC4)c3)nn3cccc23)c1` [Example 11, N-(3-((2-((1-cyclopropyl-1H-pyrazol-4-yl)amino)pyrrolo[2,1-f][1,2,4]triazin-4-yl)oxy)phenyl)acrylamide] are 10.3 nM and 107 nM.
In the same order, the values of `C=CC(=O)Nc1ccc(F)c(Oc2nc(Nc3ccc(N(C)C)cc3)nn3cccc23)c1` [Example 12, N-(3-((2-((4-(dimethylamino)phenyl)amino)pyrrolo[2,1-f][1,2,4]triazin-4-yl)oxy)-4-fluorophenyl)acrylamide] are 0.7 nM and 7.5 nM.
`C=CC(=O)Nc1ccc(F)c(Oc2nc(Nc3ccc(Oc4ccccc4)cc3)nn3cccc23)c1` [Example 13, N-(4-fluoro-3-((2-((4-phenoxyphenyl)amino)pyrrolo[2,1-f][1,2,4]triazin-4-yl)oxy)phenyl)acrylamide]: the IC50 in experiment [1] is 41.7 nM; in experiment [2] it was 622 nM.
For `C=CC(=O)Nc1ccc(F)c(Oc2nc(Nc3ccc4ncsc4c3)nn3cccc23)c1` [Example 14, N-(3-((2-((benzo[d]thiazol-6-yl)amino)pyrrolo[2,1-f][1,2,4]triazin-4-yl)oxy)-4-fluorophenyl)acrylamide], in that order: 9.8 nM and 43.3 nM.
For `C=CC(=O)Nc1ccc(F)c(Oc2nc(Nc3cccnc3)nn3cccc23)c1` [Example 15, N-(4-fluoro-3-((2-((pyridin-3-yl)amino)pyrrolo[2,1-f][1,2,4]triazin-4-yl)oxy)phenyl)acrylamide], in that order: 15.5 nM and 104 nM.
For the molecule `C=CC(=O)Nc1cccc(Oc2nc(Nc3ccc(C(C)C)cc3)nn3cccc23)c1` [Example 16, N-(3-((2-((4-isopropylphenyl)amino)pyrrolo[2,1-f][1,2,4]triazin-4-yl)oxy)phenyl)acrylamide], the IC50 in experiment [1] is 20 nM; in experiment [2], 123 nM.
In the same order, the values of `C=CC(=O)Nc1cccc(Oc2nc(Nc3ccc(OC)cc3)nn3cccc23)c1` [Example 17, N-(3-((2-((4-methoxyphenyl)amino)pyrrolo[2,1-f][1,2,4]triazin-4-yl)oxy)phenyl)acrylamide] are 5.9 nM and 68.6 nM.
For `C=CC(=O)Nc1cccc(Oc2nc(Nc3ccc(C(=O)N4CCOCC4)cc3)nn3cccc23)c1` [Example 18, N-(3-((2-((4-(morpholine-4-carbonyl)phenyl)amino)pyrrolo[2,1-f][1,2,4]triazin-4-yl)oxy)phenyl)acrylamide], in that order: 2.2 nM and 37.8 nM.
For `C=CC(=O)Nc1cccc(Oc2nc(Nc3ccsc3)nn3cccc23)c1` [Example 19, N-(3-((2-((thiophen-3-yl)amino)pyrrolo[2,1-f][1,2,4]triazin-4-yl)oxy)phenyl)acrylamide], in that order: 5.3 nM and 62.9 nM.
In the case of `C=CC(=O)Nc1cccc(Oc2nc(Nc3ccn(C)n3)nn3cccc23)c1` [Example 20, N-(3-((2-((1-methyl-1H-pyrazol-3-yl)amino)pyrrolo[2,1-f][1,2,4]triazin-4-yl)oxy)phenyl)acrylamide], the IC50 in experiment [1] was determined as 57.7 nM; in experiment [2] it was 647 nM.
On to `C=CC(=O)Nc1cccc(Oc2nc(Nc3ccc(CN(C)C)cc3)nn3cccc23)c1` [Example 21, N-(3-((2-((4-((dimethylamino)methyl)phenyl)amino)pyrrolo[2,1-f][1,2,4]triazin-4-yl)oxy)phenyl)acrylamide], for which the IC50 in experiment [1] amounted to 11.7 nM; in experiment [2], 104 nM.
In the same order, the values of `C=CC(=O)Nc1cccc(Oc2nc(Nc3ccc(N4CCOCC4)cc3)nn3cccc23)c1` [Example 22, N-(3-((2-((4-morpholinophenyl)amino)pyrrolo[2,1-f][1,2,4]triazin-4-yl)oxy)phenyl)acrylamide] are 5.3 nM and 35.4 nM.
